Assay results taken from patent US11851411B2, “Herbicidal compounds” (SYNGENTA CROP PROTECTION AG, priority 2018, dated 2023).

Key:
Assay type in all cases: in vivo
[1] = test system: Abutilon theophrasti (ABUTH); assay: Glasshouse herbicide test, pre-emergence; settings: PRE Application; 500 g/h; evaluated after 13 days
Procedure: (§1) Seeds of a variety of test species are shown in standard soil in pots (Lolium perenne (LOLPE), Amaranthus retoflexus (AMARE), Abutilon theophrasti (ABUTH), Setaria faberi (SETFA), Echinochloa crus-galli (ECHCG), Ipomoea hederacea (IPOHE)). After cultivation for one day (pre-emergence) or after 8 days cultivation (post-emergence) under controlled conditions in a glasshouse (at 24/16° C., day/night; 14 hours light; 65% humidity), the plants are sprayed with an aqueous spray solution derived from the formulation of the technical active ingredient in acetone/water (50:50) solution containing 0.5% Tween 20 (polyoxyethelyene sorbitan monolaurate, CAS RN 9005-64-5). Compounds are applied at 500 g/h. The test plants are then grown in a glasshouse under controlled conditions in a glasshouse (at 24/16° C., day/night; 14 hours light; 65% humidity) and watered twice daily. After 13 days for pre and post-emergence, the test is evaluated for the percentage damage caused to the plant. The biological activities are shown in the following table on a five point scale (5=80-100%; 4=60-79%; 3=40-59%; 2=20-39%; 1=0-19%).

[2] = test system: Amaranthus retoflexus (AMARE); assay: Glasshouse herbicide test, pre-emergence; settings: PRE Application; 500 g/h; evaluated after 13 days
Procedure: as §1

[3] = test system: Setaria faberi (SETFA); assay: Glasshouse herbicide test, pre-emergence; settings: PRE Application; 500 g/h; evaluated after 13 days
Procedure: as §1

[4] = test system: Ipomoea hederacea (IPOHE); assay: Glasshouse herbicide test, pre-emergence; settings: PRE Application; 500 g/h; evaluated after 13 days
Procedure: as §1

[5] = test system: Echinochloa crus-galli (ECHCG); assay: Glasshouse herbicide test, pre-emergence; settings: PRE Application; 500 g/h; evaluated after 13 days
Procedure: as §1

[6] = test system: Abutilon theophrasti (ABUTH); assay: Glasshouse herbicide test, post-emergence; settings: POST Application; 500 g/h; evaluated after 13 days
Procedure: as §1

[7] = test system: Amaranthus retoflexus (AMARE); assay: Glasshouse herbicide test, post-emergence; settings: POST Application; 500 g/h; evaluated after 13 days
Procedure: as §1

[8] = test system: Setaria faberi (SETFA); assay: Glasshouse herbicide test, post-emergence; settings: POST Application; 500 g/h; evaluated after 13 days
Procedure: as §1

[9] = test system: Ipomoea hederacea (IPOHE); assay: Glasshouse herbicide test, post-emergence; settings: POST Application; 500 g/h; evaluated after 13 days
Procedure: as §1

[10] = test system: Echinochloa crus-galli (ECHCG); assay: Glasshouse herbicide test, post-emergence; settings: POST Application; 500 g/h; evaluated after 13 days
Procedure: as §1

Row | SMILES | percentage damage caused to the plant, five point scale, ABUTH [1] | percentage damage caused to the plant, five point scale, AMARE [2] | percentage damage caused to the plant, five point scale, SETFA [3] | percentage damage caused to the plant, five point scale, IPOHE [4] | percentage damage caused to the plant, five point scale, ECHCG [5] | percentage damage caused to the plant, five point scale, ABUTH [6] | percentage damage caused to the plant, five point scale, AMARE [7] | percentage damage caused to the plant, five point scale, SETFA [8] | percentage damage caused to the plant, five point scale, IPOHE [9] | percentage damage caused to the plant, five point scale, ECHCG [10]
1 | CON(C(C)=O)c1c(S(C)(=O)=O)ccc(C(=O)Nc2nnnn2C)c1Cl [Compound 1.007] | 5 (5=80-100%) | 5 (5=80-100%) | 3 (3=40-59%) | 5 (5=80-100%) | 5 (5=80-100%) | 5 (5=80-100%) | 5 (5=80-100%) | 5 (5=80-100%) | 5 (5=80-100%) | 5 (5=80-100%)
2 | CCn1nnnc1NC(=O)c1ccc(S(C)(=O)=O)c(N(OC)C(C)=O)c1Cl [Compound 1.008] | 5 (5=80-100%) | 5 (5=80-100%) | 5 (5=80-100%) | 5 (5=80-100%) | 5 (5=80-100%) | 5 (5=80-100%) | 5 (5=80-100%) | 5 (5=80-100%) | 5 (5=80-100%) | 5 (5=80-100%)
3 | CCCn1nnnc1NC(=O)c1ccc(S(C)(=O)=O)c(N(OC)C(C)=O)c1Cl [Compound 1.009, 3-[acetyl(methoxy)amino]-2-chloro-4-methylsulfonyl-N-(1-propyltetrazol-5-yl)benzamide] | 5 (5=80-100%) | 5 (5=80-100%) | 4 (4=60-79%) | 5 (5=80-100%) | 5 (5=80-100%) | 5 (5=80-100%) | 5 (5=80-100%) | 5 (5=80-100%) | 5 (5=80-100%) | 5 (5=80-100%)
4 | CON(C(=O)OC(C)(C)C)c1c(C(F)(F)F)ccc(C(=O)Nc2nnnn2C)c1Cl [Compound 1.025] | 5 (5=80-100%) | 5 (5=80-100%) | 5 (5=80-100%) | 5 (5=80-100%) | 5 (5=80-100%) | 5 (5=80-100%) | 5 (5=80-100%) | 5 (5=80-100%) | 5 (5=80-100%) | 5 (5=80-100%)
5 | CON(C(=O)OC(C)(C)C)c1c(S(C)(=O)=O)ccc(C(=O)Nc2nnnn2C)c1Cl [Compound 1.031] | 5 (5=80-100%) | 5 (5=80-100%) | 5 (5=80-100%) | 5 (5=80-100%) | 5 (5=80-100%) | 5 (5=80-100%) | 5 (5=80-100%) | 5 (5=80-100%) | 5 (5=80-100%) | 5 (5=80-100%)
6 | CON(C)c1c(C(F)(F)F)ccc(C(=O)Nc2nnnn2C)c1Cl [Compound 1.037] | 5 (5=80-100%) | 5 (5=80-100%) | 5 (5=80-100%) | 5 (5=80-100%) | 5 (5=80-100%) | 5 (5=80-100%) | 5 (5=80-100%) | 5 (5=80-100%) | 5 (5=80-100%) | 5 (5=80-100%)
7 | CCn1nnnc1NC(=O)c1ccc(S(C)(=O)=O)c(N(C)OC)c1Cl [Compound 1.044] | 5 (5=80-100%) | 5 (5=80-100%) | 5 (5=80-100%) | 5 (5=80-100%) | 5 (5=80-100%) | 5 (5=80-100%) | 5 (5=80-100%) | 5 (5=80-100%) | 5 (5=80-100%) | 5 (5=80-100%)
8 | CCCn1nnnc1NC(=O)c1ccc(S(C)(=O)=O)c(N(C)OC)c1Cl [Compound 1.045] | 5 (5=80-100%) | 5 (5=80-100%) | 5 (5=80-100%) | 5 (5=80-100%) | 5 (5=80-100%) | 5 (5=80-100%) | 5 (5=80-100%) | 5 (5=80-100%) | 5 (5=80-100%) | 5 (5=80-100%)
9 | CON(C(=O)C(C)C)c1c(C(F)(F)F)ccc(C(=O)Nc2nnnn2C)c1Cl [Compound 1.049] | 5 (5=80-100%) | 5 (5=80-100%) | 5 (5=80-100%) | 5 (5=80-100%) | 5 (5=80-100%) | 5 (5=80-100%) | 5 (5=80-100%) | 5 (5=80-100%) | 5 (5=80-100%) | 5 (5=80-100%)
10 | CCC(=O)N(OC)c1c(C(F)(F)F)ccc(C(=O)Nc2nnnn2C)c1Cl [Compound 1.050] | 5 (5=80-100%) | 5 (5=80-100%) | 5 (5=80-100%) | 4 (4=60-79%) | 5 (5=80-100%) | 5 (5=80-100%) | 5 (5=80-100%) | 5 (5=80-100%) | 5 (5=80-100%) | 5 (5=80-100%)
11 | CCCS(=O)(=O)c1ccc(C(=O)Nc2nnnn2C)c(Cl)c1N(C)OC [Compound 1.054] | 5 (5=80-100%) | 5 (5=80-100%) | 5 (5=80-100%) | 5 (5=80-100%) | 5 (5=80-100%) | 5 (5=80-100%) | 5 (5=80-100%) | 5 (5=80-100%) | 5 (5=80-100%) | 5 (5=80-100%)
12 | CCON(C)c1c(S(C)(=O)=O)ccc(C(=O)Nc2nnnn2CC)c1Cl [Compound 1.055] | 5 (5=80-100%) | 5 (5=80-100%) | 5 (5=80-100%) | 5 (5=80-100%) | 5 (5=80-100%) | 5 (5=80-100%) | 5 (5=80-100%) | 5 (5=80-100%) | 5 (5=80-100%) | 5 (5=80-100%)
